Assay results as given in the NIST ThermoML archive (doi:10.1016/j.fluid.2018.09.024).
Numbers after ± are expanded uncertainties.

Experiment: activity coefficient (dimensionless); of the first substance listed, at infinite dilution; xn = mol fraction of the nth substance listed
Conditions: 101.33 kPa, Liquid, Chromatography, x1 = 0

SMILES	activity coefficient (318.15 K)	activity coefficient (328.15 K)	activity coefficient (338.15 K)	activity coefficient (348.15 K)	activity coefficient (358.15 K)	activity coefficient (368.15 K)	activity coefficient (378.15 K)
CCCOCCC [dipropyl ether] + CCCCCCCCCCCC[N+](C)(C)CCOc1ccccc1.O=S(=O)([N-]S(=O)(=O)C(F)(F)F)C(F)(F)F	1.78 ± 0.12	1.85 ± 0.12	1.92 ± 0.13	1.99 ± 0.14	2.06 ± 0.14	2.13 ± 0.14	
CC(C)=O [acetone] + CCCCCCCCCCCC[N+](C)(C)CCOc1ccccc1.O=S(=O)([N-]S(=O)(=O)C(F)(F)F)C(F)(F)F	0.331 ± 0.032	0.353 ± 0.032	0.375 ± 0.033	0.398 ± 0.034	0.421 ± 0.035	0.445 ± 0.036	
C#CCCC [1-pentyne] + CCCCCCCCCCCC[N+](C)(C)CCOc1ccccc1.O=S(=O)([N-]S(=O)(=O)C(F)(F)F)C(F)(F)F	1.07 ± 0.07	1.13 ± 0.07	1.19 ± 0.08	1.25 ± 0.08	1.32 ± 0.09	1.39 ± 0.09	
C1COCCO1 [1,4-dioxane] + CCCCCCCCCCCC[N+](C)(C)CCOc1ccccc1.O=S(=O)([N-]S(=O)(=O)C(F)(F)F)C(F)(F)F	0.45 ± 0.036	0.483 ± 0.037	0.517 ± 0.039	0.551 ± 0.04	0.584 ± 0.041	0.619 ± 0.043	
COC(C)(C)C [2-methoxy-2-methylpropane] + CCCCCCCCCCCC[N+](C)(C)CCOc1ccccc1.N#C[N-]C#N		2.28 ± 0.16	2.33 ± 0.16	2.38 ± 0.16	2.43 ± 0.17	2.48 ± 0.17	2.53 ± 0.17
Cc1ccccc1 [toluene] + CCCCCCCCCCCC[N+](C)(C)CCOc1ccccc1.O=S(=O)([N-]S(=O)(=O)C(F)(F)F)C(F)(F)F	0.681 ± 0.046	0.725 ± 0.048	0.766 ± 0.05	0.81 ± 0.052	0.851 ± 0.055	0.893 ± 0.057	
Cc1ccccc1C [1,2-dimethylbenzene] + CCCCCCCCCCCC[N+](C)(C)CCOc1ccccc1.O=S(=O)([N-]S(=O)(=O)C(F)(F)F)C(F)(F)F	0.783 ± 0.051	0.83 ± 0.053	0.874 ± 0.056	0.922 ± 0.058	0.968 ± 0.061	1.01 ± 0.06	
C=COC(C)=O [vinyl acetate] + CCCCCCCCCCCC[N+](C)(C)CCOc1ccccc1.O=S(=O)([N-]S(=O)(=O)C(F)(F)F)C(F)(F)F	0.393 ± 0.034	0.414 ± 0.034	0.434 ± 0.035	0.453 ± 0.036	0.473 ± 0.037	0.493 ± 0.038	
CCC(=O)OC [methyl propanoate] + CCCCCCCCCCCC[N+](C)(C)CCOc1ccccc1.O=S(=O)([N-]S(=O)(=O)C(F)(F)F)C(F)(F)F	0.498 ± 0.038	0.53 ± 0.039	0.566 ± 0.041	0.599 ± 0.042	0.633 ± 0.044	0.669 ± 0.045	
CCC[N+](=O)[O-] [1-nitropropane] + CCCCCCCCCCCC[N+](C)(C)CCOc1ccccc1.O=S(=O)([N-]S(=O)(=O)C(F)(F)F)C(F)(F)F	0.722 ± 0.048	0.747 ± 0.049	0.77 ± 0.05	0.793 ± 0.052	0.815 ± 0.053	0.837 ± 0.054	
CCOC(C)=O [ethyl acetate] + CCCCCCCCCCCC[N+](C)(C)CCOc1ccccc1.O=S(=O)([N-]S(=O)(=O)C(F)(F)F)C(F)(F)F	0.505 ± 0.038	0.533 ± 0.039	0.563 ± 0.04	0.592 ± 0.042	0.62 ± 0.043	0.648 ± 0.044	
CC(C)(C)O [2-methylpropan-2-ol] + CCCCCCCCCCCC[N+](C)(C)CCOc1ccccc1.N#C[N-]C#N		0.539 ± 0.039	0.554 ± 0.04	0.569 ± 0.041	0.584 ± 0.041	0.598 ± 0.042	0.613 ± 0.043
CCCCCCCCC [nonane] + CCCCCCCCCCCC[N+](C)(C)CCOc1ccccc1.O=S(=O)([N-]S(=O)(=O)C(F)(F)F)C(F)(F)F	4.77 ± 0.33	4.87 ± 0.33	4.96 ± 0.34	5.03 ± 0.34	5.12 ± 0.35	5.18 ± 0.35	
CCCC(C)=O [pentan-2-one] + CCCCCCCCCCCC[N+](C)(C)CCOc1ccccc1.N#C[N-]C#N		0.899 ± 0.057	0.936 ± 0.059	0.97 ± 0.061	1 ± 0.06	1.04 ± 0.07	1.07 ± 0.07
CO [methanol] + CCCCCCCCCCCC[N+](C)(C)CCOc1ccccc1.O=S(=O)([N-]S(=O)(=O)C(F)(F)F)C(F)(F)F	1.1 ± 0.07	1.06 ± 0.07	1.04 ± 0.07	1.01 ± 0.06	0.982 ± 0.062	0.964 ± 0.061	
